The values below come from patent publication US5543415A, “Antidepressants” (Kyowa Hakko Kogyo Co., Ltd., priority 1992, dated 1996).

The subject of this data set is ddY-strain male mice. Kind of data set: Acute Toxicity Test (minimum lethal dose, oral). Format: in vivo. Conditions: seven days after administration. How it is done:
Test compounds were orally administered to groups of ddY-strain male mice weighing 20±1 g, each group consisting of three mice. Seven days after the administration, minimum lethal dose (MLD) of each compound was determined by observing the mortality.
`CCn1c(=O)c2[nH]c(/C=C/c3cc(C)ccc3C)nc2n(CC)c1=O` [Compound 109, (E)-8-(2,5-Dimethylstyryl)-1,3-diethylxanthine]: the “MLD (minimum lethal dose)” value is more than 300 mg/kg.
The value for `CCCn1c(=O)c2[nH]c(/C=C/c3ccc4c(c3)OCCO4)nc2n(CCC)c1=O` [Compound 17, (E)-8-[2-(1,4-Benzodioxan-6-yl)vinyl]-1,3-dipropylxanthine] was more than 300 mg/kg; that for `CCn1c(=O)c2c(nc(/C(C)=C/c3ccccc3)n2C)n(CC)c1=O` [Compound 134, (E)-1,3-Diethyl-7-methyl-8-(α-methylstyryl)xanthine] was more than 300 mg/kg; that for `COc1ccc(/C=C/c2nc3c(c(=O)n(C)c(=O)n3C)n2C)c(OC)c1C` [Compound 104, (E)-8-(2,4-Dimethoxy-3-methylstyryl)caffeine] was more than 100 mg/kg.
Turning to `CCCn1c(=O)c2c(nc(/C=C/c3ccc(OC)c(OC)c3)n2CC)n(CCC)c1=O` [Compound 66, (E)-8-(3,4-Dimethoxystyryl)-7-ethyl-1,3-dipropylxanthine], the “MLD (minimum lethal dose)” value is listed as more than 300 mg/kg.
Take `CCn1c(=O)c2[nH]c(/C=C/c3cc(OC)c4c(c3)OCO4)nc2n(CC)c1=O` [Compound 178, (E)-1,3-Diethyl-8-(3-methoxy-4,5-methylenedioxystyryl)xanthine]: the “MLD (minimum lethal dose)” value was more than 100 mg/kg.
For the compound `CCn1c(=O)c2[nH]c(/C=C/c3ccc(OC)c(C)c3OC)nc2n(CC)c1=O` [Compound 85, (E)-8-(2,4-Dimethoxy-3-methylstyryl)-1,3-diethylxanthine], the “MLD (minimum lethal dose)” value is reported as more than 300 mg/kg.
For `CCn1c(=O)c2c(nc(/C=C/c3ccccc3OC)n2C)n(CC)c1=O` [Compound 158, (E)-1,3-Diethyl-8-(2-methoxystyryl)-7-methylxanthine] the value was more than 100 mg/kg.
On to `CCCn1c(=O)c2nc(/C=C/c3cc(OC)c(OC)cc3OC)[nH]c2n(CCC)c1=O` [Compound 23, (E)-1,3-Dipropyl-8-(2,4,5-trimethoxystyryl)xanthine], for which the “MLD (minimum lethal dose)” value is more than 300 mg/kg.
The value for `CCn1c(=O)c2[nH]c(/C(C)=C/c3ccccc3)nc2n(CC)c1=O` [Compound 133, (E)-1,3-Diethyl-8-(α-methylstyryl)xanthine] was more than 100 mg/kg; that for `CCn1c(=O)c2[nH]c(/C=C/c3cc(OC)c(OC)cc3[N+](=O)[O-])nc2n(CC)c1=O` [Compound 119, (E)-8-(4,5-Dimethoxy-2-nitrostyryl)-1,3-diethylxanthine] was more than 100 mg/kg; that for `CCCn1c(=O)c2c(nc(/C=C/c3cc(OC)cc(OC)c3)n2C)n(CCC)c1=O` [Compound 34, (E)-8-(3,5-Dimethoxystyryl)-7-methyl-1,3-dipropylxanthine] was more than 300 mg/kg.
For `COc1ccc(/C=C/c2nc3c(c(=O)n(C)c(=O)n3C)n2C)c(OC)c1` [Compound 100, (E)-8-(2,4-Dimethoxystyryl)caffeine] the value was more than 300 mg/kg.
For `CCn1c(=O)c2[nH]c(/C=C/c3ccc(-c4ccccc4)cc3)nc2n(CC)c1=O` [Compound 170, (E)-1,3-Diethyl-8-(4-phenylstyryl)xanthine] the value was more than 100 mg/kg; for `CCn1c(=O)c2[nH]c(/C=C/c3ccc(OC)c(C)c3)nc2n(CC)c1=O` [Compound 174, (E)-1,3-Diethyl-8-(4-methoxy-3-methylstyryl)xanthine], more than 100 mg/kg.
On to `CCCn1c(=O)c2c(nc(/C=C/c3ccc(OC)c4ccccc34)n2C)n(CCC)c1=O` [Compound 63, (E)-8-[2-(4-Methoxynaphthyl)vinyl]-7-methyl-1,3-dipropylxanthine], for which the “MLD (minimum lethal dose)” value is on record as more than 300 mg/kg.
The value for `CCn1c(=O)c2[nH]c(/C=C/c3ccccc3F)nc2n(CC)c1=O` [Compound 167, (E)-1,3-Diethyl-8-(2-fluorostyryl)xanthine] was more than 100 mg/kg.
Turning to `CCn1c(=O)c2c(nc(/C=C/c3cc(C)ccc3C)n2C)n(CC)c1=O` [Compound 110, (E)-8-(2,5-Dimethylstyryl)-1,3-diethyl-7-methylxanthine], the “MLD (minimum lethal dose)” value is more than 300 mg/kg.
For `CCn1c(=O)c2c(nc(/C=C/c3ccc(OC)c(O)c3)n2C)n(CC)c1=O` [Compound 183, (E)-1,3-Diethyl-8-(3-hydroxy-4-methoxystyryl)-7-methylxanthine] the value was more than 100 mg/kg; for `Cn1c(=O)c2[nH]c(/C=C/c3ccc4c(c3)OCO4)nc2n(C)c1=O` [Compound 95, (E)-8-(3,4-Methylenedioxystyryl)theophylline], more than 300 mg/kg.
The value for `COc1ccc(/C=C/c2nc3c([nH]2)c(=O)n(C)c(=O)n3C)c(Cl)c1OC` [Compound 107, (E)-8-(2-Chloro-3,4-dimethoxystyryl)theophylline] was more than 100 mg/kg.
The value for `CCCn1c(=O)c2c(nc(/C=C/c3cc(OC)c(OC)cc3OC)n2C)n(CCC)c1=O` [Compound 24, (E)-7-Methyl-1,3-dipropyl-8-(2,4,5-trimethoxystyryl)xanthine] was more than 300 mg/kg; that for `CCCn1c(=O)c2c(nc(/C=C/c3cccc([N+](=O)[O-])c3)n2C)n(CCC)c1=O` [Compound 36, (E)-7-Methyl-8-(3-nitrostyryl)-1,3-dipropylxanthine] was more than 100 mg/kg.
In the case of `CCn1c(=O)c2c(nc(/C=C/c3cccc(C(F)(F)F)c3)n2C)n(CC)c1=O` [Compound 164, (E)-1,3-Diethyl-7-methyl-8-(3-trifluoromethylstyryl)xanthine], the “MLD (minimum lethal dose)” value is more than 100 mg/kg.
Regarding `CCCn1c(=O)c2c(nc(/C=C/c3cc(Br)c(OC)c(OC)c3)n2C)n(CCC)c1=O` [Compound 61, (E)-8-(3-Bromo-4,5-dimethoxystyryl)-7-methyl-1,3-dipropylxanthine], the “MLD (minimum lethal dose)” value was more than 100 mg/kg.
The value for `CCn1c(=O)c2[nH]c(/C=C/c3ccc(OC)c(Br)c3)nc2n(CC)c1=O` [Compound 113, (E)-8-(3-Bromo-4-methoxystyryl)-1,3-diethylxanthine] was more than 100 mg/kg; that for `CCn1c(=O)c2[nH]c(/C=C/c3ccc(OCOC)cc3)nc2n(CC)c1=O` [Compound 145, (E)-1,3-Diethyl-8-(4-methoxymethoxystyryl)xanthine] was more than 100 mg/kg.
For `CCn1c(=O)c2[nH]c(/C=C/c3cc(OC)c(OC)cc3Br)nc2n(CC)c1=O` [Compound 117, (E)-8-(2-Bromo-4,5-dimethoxystyryl)-1,3-diethylxanthine] the value was more than 100 mg/kg.
For the compound `CCCn1c(=O)c2c(nc(/C=C/c3cccc(F)c3)n2C)n(CCC)c1=O` [Compound 38, (E)-8-(3-Fluorostyryl)-7-methyl-1,3-dipropylxanthine], the “MLD (minimum lethal dose)” value is listed as more than 300 mg/kg.
The value for `CCCn1c(=O)c2[nH]c(/C=C/c3cccc([N+](=O)[O-])c3)nc2n(CCC)c1=O` [Compound 35, (E)-8-(3-Nitrostyryl)-1,3-dipropylxanthine] was more than 100 mg/kg; that for `CCn1c(=O)c2c(nc(/C=C/c3ccc(C(F)(F)F)cc3)n2C)n(CC)c1=O` [Compound 136, (E)-1,3-Diethyl-7-methyl-8-(4-trifluoromethylstyryl)xanthine] was more than 300 mg/kg.
